ChEMBL document CHEMBL1130825, “Novel D-ring analogues of podophyllotoxin as potent anti-cancer agents” (1998)

What was measured:
[1] = tested on: KM12; assay: In vitro cytotoxicity against human colon cancer KM 12 cell line; format: functional
[2] = tested on: HCC 2998; assay: In vitro cytotoxicity against human colon cancer HCC 2998 cell line; format: functional
[3] = tested on: HCT-116; assay: In vitro cytotoxicity against human colon cancer HCT 116 cell line; format: functional
[4] = tested on: HCT-15; assay: In vitro cytotoxicity against human colon cancer HCT 15 cell line; format: functional
[5] = tested on: COLO 205; assay: In vitro cytotoxicity against human colon cancer COLO 205 cell line; format: functional
[6] = tested on: HT-29; assay: In vitro cytotoxicity against human colon cancer HT 29 cell line; format: functional
[7] = tested on: MDA-MB-231; assay: In vitro cytotoxicity against human breast cancer MDA-MB 231 cell line; format: functional
[8] = tested on: SK-OV-3; assay: in vitro cytotoxicity against SKOV3 cancer cell line; format: functional; settings: Homo sapiens
[9] = tested on: BT-549; assay: In vitro cytotoxicity against human breast cancer BT-549 cell line; format: functional
[10] = tested on: SW-620; assay: In vitro cytotoxicity against human colon cancer SW 620 cell line; format: functional
[11] = tested on: MDA-MB-435; assay: In vitro cytotoxicity against human breast cancer MDA-MB 435 cell line; format: functional
[12] = tested on: A498; assay: in vitro cytotoxicity against A 498 cancer cell line; format: functional; settings: Homo sapiens
[13] = tested on: Hs-578T; assay: In vitro cytotoxicity against human breast cancer Hs 578.T cell line; format: functional
[14] = tested on: MCF7; assay: In vitro cytotoxicity against human breast cancer MCF-7 cell line; format: functional
[15] = tested on: M14; assay: in vitro cytotoxicity against M-14 cancer cell line; format: functional; settings: Homo sapiens
[16] = tested on: MDA-N; assay: In vitro cytotoxicity against human breast cancer MDA-N cell line; format: functional
[17] = tested on: DU-145; assay: in vitro cytotoxicity against DU-145 cancer cell line; format: functional; settings: Homo sapiens
[18] = In vitro cytotoxicity against human breast cancer MCF-7 ADR cell line; format: functional; settings: MCF7
[19] = tested on: MCF7; assay: in vitro cytotoxicity against MCF-7 ADR cancer cell line; format: functional; settings: Homo sapiens
[20] = tested on: SK-OV-3; assay: Compound was evaluated for in vitro cytotoxicity against SKOV3 cancer cell line; format: functional; settings: Homo sapiens
[21] = tested on: DU-145; assay: Compound was evaluated for in vitro cytotoxicity against DU-145 cancer cell line; format: functional; settings: Homo sapiens
[22] = tested on: M14; assay: Compound was evaluated for in vitro cytotoxicity against M-14 cancer cell line; format: functional; settings: Homo sapiens
[23] = tested on: MCF7; assay: Compound was evaluated for in vitro cytotoxicity against MCF-7 ADR cancer cell line; format: functional; settings: Homo sapiens
[24] = tested on: A498; assay: Compound was evaluated for in vitro cytotoxicity against A 498 cancer cell line; format: functional; settings: Homo sapiens
[25] = tested on: NCI-H522; assay: Compound was evaluated for in vitro cytotoxicity against H522 cancer cell line; settings: Homo sapiens
[26] = tested on: MCF7; assay: Compound was evaluated for in vitro cytotoxicity data against human breast cancer MCF-7 ADR cell line; format: functional

| Compound | GI50 [1] [nM] | GI50 [2] [nM] | GI50 [3] [nM] | GI50 [4] [nM] | GI50 [5] [nM] | GI50 [6] [nM] | GI50 [7] [nM] | GI50 [9] [nM] | GI50 [10] [nM] | GI50 [11] [nM] | GI50 [13] [nM] | GI50 [14] [nM] | GI50 [16] [nM] | GI50 [18] [nM] | further results |
| --- | --- | --- | --- | --- | --- | --- | --- | --- | --- | --- | --- | --- | --- | --- | --- |
| COC(=O)[C@@H]1C(c2cc(OC)c(OC)c(OC)c2)c2cc3c(cc2[C@@H]2OC(=O)OC[C@@H]12)OCO3 (some centres not stated) | 70000 | 20000 | > 30000 | 10000 | 2000 | > 30000 |  |  |  |  |  |  |  |  |  |
| CCOC(=O)[C@@H]1C(c2cc(OC)c(OC)c(OC)c2)c2cc3c(cc2[C@@H]2OC(=O)OC[C@@H]12)OCO3 (some centres not stated) | 6000 | 8000 | 90 | 200 | 1500 | 2000 |  |  |  |  |  |  |  |  |  |
| CCOC(=O)[C@@H]1[C@H](c2cc(OC)c(O)c(OC)c2)c2cc3c(cc2[C@@H]2OC(=O)OC[C@@H]12)OCO3 | 200 | 1500 | 600 | 400 | 30000 | 200 |  |  |  |  |  |  |  |  |  |
| CCOC(=O)[C@@H]1[C@H](c2cc(OC)c(O)c(OC)c2)c2cc3c(cc2[C@H](O)[C@H]1CO)OCO3 | 780 | 1300 | 1700 | 2070 | 1160 | 880 | 6780 | 4910 | 1170 | 840 | 1200 | 2170 | 1060 |  | GI50 [8]: 3350 nM; GI50 [12]: 1100 nM; GI50 [15]: 2100 nM; GI50 [17]: 1630 nM |
| CCCCOC(=O)[C@@H]1[C@H](c2cc(OC)c(OC)c(OC)c2)c2cc3c(cc2[C@H](O)[C@H]1CO)OCO3 | 1860 | 1800 | 3700 | 2000 | 1900 | 2500 | > 30000 | > 30000 | 2200 | 1600 |  | 2000 | 11500 | 5600 |  |
| CCOC(=O)[C@@H]1[C@H](c2cc(OC)c(OC)c(OC)c2)c2cc3c(cc2[C@H](O)[C@H]1CO)OCO3 | 8400 | 14000 | 24000 | 13000 | 14000 | 17000 | 18000 | > 30000 | 26000 | 4400 | 27000 | 23000 | 3500 | 14000 | GI50 [12]: > 30000 nM; GI50 [19]: 14300 nM; GI50 [15]: 14900 nM; GI50 [17]: > 30000 nM; GI50 [20]: 29900 nM |
| COC(=O)[C@@H]1[C@H](c2cc(OC)c(O)c(OC)c2)c2cc3c(cc2[C@@H]2OC(=O)OC[C@@H]12)OCO3 | 400 | 1000 | 500 | 400 | 200 | > 30000 |  |  |  |  |  |  |  |  |  |
| COC(=O)[C@@H]1[C@H](c2cc(OC)c(O)c(OC)c2)c2cc3c(cc2[C@H](O)[C@H]1CO)OCO3 | 110 | 800 | 200 | 1020 | 100 | 90 | 100 | 500 | 340 | 100 | 3120 | 300 | 100 | 100 | GI50 [8]: 340 nM; GI50 [12]: 400 nM; GI50 [19]: 100 nM; GI50 [15]: 860 nM; GI50 [17]: 470 nM |
| CCCOC(=O)[C@@H]1[C@H](c2cc(OC)c(OC)c(OC)c2)c2cc3c(cc2[C@H](O)[C@H]1CO)OCO3 | 560 | 1700 | 420 | 1400 | 1200 | 890 | > 30000 | > 30000 | 700 | 400 | 2130 | 800 | 1450 | 3200 |  |
| COC(=O)[C@@H]1[C@H](c2cc(OC)c(OC)c(OC)c2)c2cc3c(cc2C(=O)[C@H]1CO)OCO3 | 3620 | 10800 | 6260 | 5710 | 7710 | 3520 | 16500 | 29000 | 3710 | 1640 | 1890 | 4110 | 2240 | 17500 |  |
| COc1cc([C@@H]2c3cc4c(cc3[C@H](O)[C@@H](CO)[C@@H]2C(=O)O)OCO4)cc(OC)c1OC | < 10 | 55000 | 40000 | > 100000 | < 10 | 50000 |  |  |  |  |  |  |  |  |  |
| CCCOC(=O)[C@@H]1C(c2cc(OC)c(OC)c(OC)c2)c2cc3c(cc2[C@@H]2OC(=O)OC[C@@H]12)OCO3 (some centres not stated) | 2000 | 2000 | 500 | 300 | 900 | > 30000 |  |  |  |  |  |  |  |  |  |
| COC(=O)[C@@H]1[C@H](c2cc(OC)c(OC)c(OC)c2)c2cc3c(cc2[C@H](O)[C@H]1CO)OCO3 | 20 | 30 | 40 | 40 | 10 | 20 | 30 | 60 | 20 | 10 | 10 | 30 | 10 | 40 | GI50 [21]: 40 nM; GI50 [22]: 40 nM; GI50 [23]: 40 nM; GI50 [24]: 30 nM; GI50 [25]: 10 nM; GI50 [20]: 30 nM |
| CCOC(=O)[C@@H]1[C@H](c2cc(OC)c(OC)c(OC)c2)c2cc3c(cc2C(=O)[C@H]1CO)OCO3 | 4210 | 5630 | 4350 | 3990 | 2220 | 3360 | 5990 | 5450 | 2070 | 1330 | 1560 | 3860 | 1700 | 5140 |  |
| COc1cc([C@@H]2c3cc4c(cc3[C@@H](O[C@@H]3O[C@@H]5CO[C@@H](C)O[C@H]5[C@H](O)[C@H]3O)[C@H]3COC(=O)[C@H]23)OCO4)cc(OC)c1O [ETOPOSIDE] | 5620 | 3460 | 6160 |  | 18100 | 15100 | 2000 |  |  | 900 | 8000 |  | < 10 |  | GI50 [26]: 25000 nM |
| COc1cc([C@@H]2c3cc4c(cc3[C@H](O)[C@H]3COC(=O)[C@H]23)OCO4)cc(OC)c1OC [PODOFILOX] | 10 | 200 | 10 | 20 |  | 10 | 40 |  |  | 700 | 80 | 900 | 70 | 600 |  |
